Test [1] has as its target T1, human PHD2 (Homo sapiens (Human), UniProt Q9GZT9). The experiment in a line: Test 1: human PHD2 inhibitory activity, [14C]-2-oxoglutarate to [14C]-succinic acid radiometric assay with HIF-1α peptide. It is filed as biochemical. To be noted: read-out: Percent inhibition (% at 1 μM). The procedure: (1) Expression and Preparation of Human PHD2
Human PHD2 was expressed in insect cells (HighFive cells). A registered sequence of human PHD2 (NM_022051) was introduced into the pFastBacl vector (Invitrogen), and the sequence was verified. The vector was introduced into Sf9 insect cells (Invitrogen) to acquire human PHD2 baculovirus. HighFive insect cells (Invitrogen) were infected with this recombinant virus and cultured at 27° C. for 72 hours; thereafter, a cell lysis solution containing various protease inhibitors was added and the cells were disrupted to form a suspension. The suspension of disrupted cells was centrifuged at 4° C. and 100,000×g for 30 minutes and the supernatant was recovered as a cell lysate.
(2) Measurement of Human PHD2 Inhibitory Activity
The activity of human PHD2 enzyme was measured with a substrate which is a 19-residue partial peptide based on the sequence of HIF-1α. Specifically, the conversion of 2-oxoglutarate to succinic acid which would occur simultaneously with the hydroxylation of a proline residue in the peptide with the PHD2 enzyme was utilized. To be more specific, [^14C]-2-oxogiutarate was added to the reaction system to initiate an enzymatic reaction and the [^14C]-2-oxoglutarate remaining after the reaction was bound to 2,4-dinitrophenylhydrazine (DNPH), with the resulting precipitate being removed by passage through a filter. Subsequently, radiation counting was conducted on the resulting [^14C]-succinic acid.
A test compound, HIF-1αpeptide and [^14C]-2-oxoglutarate were preliminarily added onto 96-well plates and reaction was initiated by adding a human PHD2 enzyme solution (4 μg/well). After 15-min incubation at 37° C., a DNPH-containing quench solution was added and the mixture was allowed to stand at room temperature for 30 minutes. Thereafter, an excess of non-radiolabelled 2-oxoglutarate was added and the mixture was allowed to stand at room temperature for 60 minutes. The resulting precipitate was removed by passage through a filter and the radiation count on the [^14C]-succinic acid was quantified (with MicroBeta). Radiation counting was conducted for each well and the human PHD2 inhibitory activity of each test compound was calculated on the basis of the values for the substrate-free group and the test compound-free group.

The target of test [2] is T1, human PHD2. The experiment in a line: Test 2: human PHD2 inhibitory activity, fluorescence polarization assay of HIF-1α peptide proline hydroxylation. It is filed as biochemical. The settings on record: for inhibition at 1 µM: read-out: Percent inhibition (% at 1 μM). In a few lines: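 Enzyme from lysate of cells expressing human PHD2 (NM_022051), 40 ng/well, added to compound and 19-residue HIF-1α peptide substrate; 20 min at 30° C., EDTA quench. Prolyl hydroxylation detected by HIF-OH antibody binding via fluorescence polarization; inhibition relative to compound-free wells.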
Background: In fluorescence polarisation assays a small probe gives low polarisation when free and higher when bound to something large.

[3] abbreviates: test compound's concentration 1 μM, Test 1, [14C]-2-oxoglutarate radiometric assay.
Where [4] appears, read: test compound's concentration 1 μM, Test 2, fluorescence polarization assay.

Experimental findings from patent US9422240B2, “Partially saturated nitrogen-containing heterocyclic compound” (TAISHO PHARMACEUTICAL CO., LTD, priority 2012, dated 2016) are described below.

Counter-ions that a name gives are not always drawn.

T1 sequence (Q9GZT9 whole entry): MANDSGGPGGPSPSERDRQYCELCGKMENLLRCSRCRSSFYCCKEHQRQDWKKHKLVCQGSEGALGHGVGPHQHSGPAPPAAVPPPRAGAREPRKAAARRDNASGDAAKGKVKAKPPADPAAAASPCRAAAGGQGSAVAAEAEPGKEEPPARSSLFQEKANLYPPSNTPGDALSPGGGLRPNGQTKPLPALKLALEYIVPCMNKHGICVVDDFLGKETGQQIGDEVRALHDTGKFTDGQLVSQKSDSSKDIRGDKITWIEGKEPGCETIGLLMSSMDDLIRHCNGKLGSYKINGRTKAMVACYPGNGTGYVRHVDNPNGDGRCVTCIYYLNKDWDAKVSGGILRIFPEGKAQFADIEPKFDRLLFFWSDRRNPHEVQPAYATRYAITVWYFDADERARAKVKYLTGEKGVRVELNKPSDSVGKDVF

For orientation: inhibition means the relative decrease from the control value, in per cent. For `O=C(O)CNC(=O)C1=C(O)CC2(CCOCC2)N(Cc2ccc(-c3ccc(C(F)(F)F)cc3)cc2)C1=O` [Ex. 1-1, N-[(4-Hydroxy-2-oxo-1-{[4′-(trifluoromethyl)biphenyl-4-yl]methyl}-9-oxa-1-azaspiro[5.5]undec-3-en-3-yl)carbonyl]glycine], the inhibition at 1 µM on human PHD2 [1] (setting [3]) was determined as 78%; at human PHD2 [2] (setting [4]), 94%.
As to `O=C(O)CNC(=O)C1=C(O)CC2(COC2)N(Cc2ccc(-c3ccccc3)cc2)C1=O` [Ex. 1-2, N-{[5-(Biphenyl-4-ylmethyl)-8-hydroxy-6-oxo-2-oxa-5-azaspiro[3.5]non-7-en-7-yl]carbonyl}glycine], the inhibition at 1 µM at human PHD2 [1] (setting [3]) came to 94%; on human PHD2 [2] (setting [4]), 92%.
Take `CC1CN(Cc2ccc(OC(F)(F)F)cc2)C(=O)C(C(=O)NCC(=O)O)=C1O` (stereo not shown) [Ex. 1-3, N-({4-Hydroxy-5-methyl-2-oxo-1-[4-(trifluoromethoxy)benzyl]-1,2,5,6-tetrahydropyridin-3-yl}carbonyl)glycine sodium salt]: the inhibition at 1 µM is 74% at human PHD2 [1] and 78% on human PHD2 [2].
In the case of `O=C(O)CNC(=O)C1=C(O)C2(CCCCC2)CN(Cc2ccccc2)C1=O` [Ex. 1-6], the inhibition at 1 µM stood at 50% at human PHD2 [1] (setting [3]) and 57% at human PHD2 [2] (setting [4]).
Take `O=C(O)CNC(=O)C1=C(O)C2(CCCCC2)CN(Cc2ccc3ccccc3c2)C1=O` [Ex. 1-7]: the inhibition at 1 µM at human PHD2 [1] (setting [3]) was found to be 54%; at human PHD2 [2] (setting [4]) it was 68%.
Take `O=C(O)CNC(=O)C1=C(O)C2(CCCCC2)CN(Cc2ccc(-c3ccccc3)cc2)C1=O` [Ex. 1-8]: the results for the inhibition at 1 µM at human PHD2 [1] (setting [3]) and on human PHD2 [2] (setting [4]) were 54% and 87%, respectively.
For `O=C(O)CNC(=O)C1=C(O)CC2(CCCC2)N(Cc2ccc(-c3ccccc3)cc2)C1=O` [Ex. 1-9] the same measures were 88% and 93%.
For `O=C(O)CNC(=O)C1=C(O)CC2(CCOCC2)N(Cc2ccc(-c3ccccc3)cc2)C1=O` [Ex. 1-10] the same measures were 93% and 92%.
Consider `O=C(O)CNC(=O)C1=C(O)C2(CCOCC2)CN(Cc2ccc(-c3ccccc3)cc2)C1=O` [Ex. 1-11], for which the inhibition at 1 µM on human PHD2 [1] (setting [3]) was found to be 95%; on human PHD2 [2] (setting [4]), 93%.
The matching figures for `O=C(O)CNC(=O)C1=C(O)C2(CCCC2)CN(Cc2ccc(-c3ccccc3)cc2)C1=O` [Ex. 1-13]: 64% and 81%.
Turning to `O=C(O)CNC(=O)C1=C(O)C2(CCCCCC2)CN(Cc2ccc(-c3ccccc3)cc2)C1=O` [Ex. 1-14], the inhibition at 1 µM on human PHD2 [1] (setting [3]) came to 21%; at human PHD2 [2] (setting [4]), 36%.
Turning to `O=C(O)CNC(=O)C1=C(O)C2(CCC2)CN(Cc2ccc(-c3ccccc3)cc2)C1=O` [Ex. 1-15], the inhibition at 1 µM is 72% at human PHD2 [1] (setting [3]) and 86% at human PHD2 [2] (setting [4]).
For `CC1(C)CC(O)=C(C(=O)NCC(=O)O)C(=O)N1Cc1ccc(-c2ccccc2)cc1` [Ex. 1-17], the inhibition at 1 µM on human PHD2 [1] (setting [3]) amounted to 84%; at human PHD2 [2] (setting [4]), 85%.
With `O=C(O)CNC(=O)C1=C(O)CCN(Cc2ccccc2)C1=O` [Ex. 1-21], the results for the inhibition at 1 µM on human PHD2 [1] (setting [3]) and on human PHD2 [2] (setting [4]) were 72% and 73%, respectively.
For `O=C(O)CNC(=O)C1=C(O)CCN(Cc2ccc(Br)cc2)C1=O` [Ex. 1-23], the inhibition at 1 µM on human PHD2 [1] (setting [3]) was found to be 84%; on human PHD2 [2] (setting [4]), 82%.
As to `O=C(O)CNC(=O)C1=C(O)CCN(Cc2cccc(-c3ccccc3)c2)C1=O` [Ex. 1-24], the inhibition at 1 µM amounted to 74% on human PHD2 [1] (setting [3]) and 84% on human PHD2 [2] (setting [4]).
On to `O=C(O)CNC(=O)C1=C(O)CCN(Cc2ccccc2-c2ccccc2)C1=O` [Ex. 1-25], for which the figures for the inhibition at 1 µM on human PHD2 [1] (setting [3]) and on human PHD2 [2] (setting [4]) were 72% and 76%, respectively.
For the molecule `O=C(O)CNC(=O)C1=C(O)CCN(CC2CCC(c3ccccc3)CC2)C1=O` (stereo not shown) [Ex. 1-26], the inhibition at 1 µM at human PHD2 [1] (setting [3]) is 90%.
Take `CC1(C)CN(Cc2ccc(-c3ccccc3)cc2)C(=O)C(C(=O)NCC(=O)O)=C1O` [Ex. 1-27]: the inhibition at 1 µM at human PHD2 [1] (setting [3]) stood at 75%; on human PHD2 [2] (setting [4]), 89%.
In general, IC50 refers to the midpoint of a concentration-inhibition curve. A high value points to lower potency. In the case of `O=C(O)CNC(=O)C1=C(O)CCN(Cc2ccc(Oc3ccccc3)cc2)C1=O` [Ex. 1-28], the inhibition at 1 µM on human PHD2 [1] (setting [3]) came to 94%; at human PHD2 [2] (setting [4]), 92%. The IC50 against human PHD2 [2] (human PHD2, fluorescence polarization assay, 20-min incubation at 30° C.) turned out to be 88 nM.
On to `O=C(O)CNC(=O)C1=C(O)CCN(Cc2ccc3ccccc3c2)C1=O` [Ex. 1-29], for which the inhibition at 1 µM at human PHD2 [1] (setting [3]) worked out at 81%; on human PHD2 [2] (setting [4]), 86%.
As for `O=C(O)CNC(=O)C1=C(O)CCN(CCCCCc2ccccc2)C1=O` [Ex. 1-30], the inhibition at 1 µM on human PHD2 [1] (setting [3]) was found to be 77%; on human PHD2 [2] (setting [4]), 83%.
The matching figures for `O=C(O)CNC(=O)C1=C(O)CCN(CCc2ccc(-c3ccccc3)cc2)C1=O` [Ex. 1-31]: 89% and 89%.
As to `O=C(O)CNC(=O)C1=C(O)CCN(Cc2ccc3cccnc3c2)C1=O` [Ex. 1-32], the inhibition at 1 µM at human PHD2 [1] (setting [3]) stood at 78%; on human PHD2 [2] (setting [4]), 82%.
Turning to `O=C(O)CNC(=O)C1=C(O)CCN(Cc2cccc3ccccc23)C1=O` [Ex. 1-33], the values for the inhibition at 1 µM at human PHD2 [1] (setting [3]) and at human PHD2 [2] (setting [4]) were 72% and 84%, respectively.
As for `O=C(O)CNC(=O)C1=C(O)CCN(CCc2ccccc2)C1=O` [Ex. 1-34], the results for the inhibition at 1 µM at human PHD2 [1] (setting [3]) and at human PHD2 [2] (setting [4]) were 58% and 75%, respectively.
As for `O=C(O)CNC(=O)C1=C(O)CCN(Cc2ccc(-c3ccccn3)cc2)C1=O` [Ex. 1-35], the inhibition at 1 µM was 81% at human PHD2 [1] (setting [3]) and 90% at human PHD2 [2] (setting [4]).
In the case of `CC(C)(C)c1ccc(-c2ccc(CN3CCC(O)=C(C(=O)NCC(=O)O)C3=O)cc2)cc1` [Ex. 1-36], the figures for the inhibition at 1 µM on human PHD2 [1] (setting [3]) and on human PHD2 [2] (setting [4]) were 83% and 85%, respectively.
As for `O=C(O)CNC(=O)C1=C(O)CCN(Cc2ccc(C3CCCCC3)cc2)C1=O` [Ex. 1-37], the inhibition at 1 µM came out at 87% at human PHD2 [1] (setting [3]) and 89% on human PHD2 [2] (setting [4]).
For the molecule `O=C(O)CNC(=O)C1=C(O)CCN(c2ccccc2)C1=O` [Ex. 1-38], the inhibition at 1 µM at human PHD2 [1] (setting [3]) stood at 48%; at human PHD2 [2] (setting [4]) it was 66%.
As for `O=C(O)CNC(=O)C1=C(O)CCN(c2cccc(Oc3ccccc3)c2)C1=O` [Ex. 1-39], the inhibition at 1 µM was determined as 76% at human PHD2 [1] (setting [3]) and 86% at human PHD2 [2] (setting [4]).
The matching figures for `O=C(O)CNC(=O)C1=C(O)CCN(c2ccc(Oc3ccccc3)cc2)C1=O` [Ex. 1-40]: 79% and 91%.
Turning to `O=C(O)CNC(=O)C1=C(O)CCN(Cc2cnc(-c3ccccc3)nc2)C1=O` [Ex. 1-41], the inhibition at 1 µM on human PHD2 [1] (setting [3]) was 89%; on human PHD2 [2] (setting [4]) it was 90%.
As to `O=C(O)CNC(=O)C1=C(O)CCN(Cc2ccc(Cc3ccccc3)cc2)C1=O` [Ex. 1-42], the figures for the inhibition at 1 µM on human PHD2 [1] (setting [3]) and at human PHD2 [2] (setting [4]) were 90% and 94%, respectively.
For `O=C(O)CNC(=O)C1=C(O)CCN(Cc2cnc(C3CCCCC3)nc2)C1=O` [Ex. 1-43], the inhibition at 1 µM on human PHD2 [1] (setting [3]) is 74%; at human PHD2 [2] (setting [4]) it was 79%.
For `CC1(C)CC(O)=C(C(=O)NCC(=O)O)C(=O)N1CC(=O)NCc1ccc(C(F)(F)F)cc1` [Ex. 10-2], at human PHD2 [2] (setting [4]), the inhibition at 1 µM worked out at 6%.
As to `CN(Cc1ccc(F)cc1)C(=O)CN1C(=O)C(C(=O)NCC(=O)O)=C(O)CC1(C)C` [Ex. 10-4], the inhibition at 1 µM at human PHD2 [2] (setting [4]) was 10%.
As for `O=C(O)CNC(=O)C1=C(O)CCN(C(CO)c2ccc(-c3ccc(F)cc3)cc2)C1=O` (stereo not shown) [Ex. 11-1, N-({1-[1-(4′-Fuoro-4-biphenylyl)-2-hydroxyethyl]-4-hydroxy-2-oxo-1,2,5,6-tetrahydro-3-pyridinyl}carbonyl)glycine], the inhibition at 1 µM on human PHD2 [2] (setting [4]) is 96%.
